This is an account of results in patent publication US11331387B2, “Self-assembled drug-loading system and preparation method therefor” (SHANGHAI SELECTION BIOSCIENCE LLC., priority 2016, dated 2022).

In series [1] the test system is BCap37 human breast cancer cell line tumor. The series can be described thus: in vivo fluorescence imaging in tumor-bearing nude mice. Conditions: 3 hours after administration, FIG. 13. The text has this:
Therefore, these two nanoparticle formulations were further selected for in vivo fluorescence imaging in tumor-bearing nude mice, in comparison with small molecule ICG. The tumor was located 2 cm below the right armpit of the mouse, derived from BCap37 human breast cancer cell line.

Series [2] is described as follows: plasma clearance test on mice. The class given is in vivo. The procedure: To determine the appropriate drug ratio of ICG/SN38 nanoparticles for animal experiments, a series of ICG/SN38 nanoparticles: I2S1, I1S1, I1S2, I1S5 and I1S10 were prepared, and the average particle size thereof was 130 nm, 55 nm, 36 nm, 30 nm and 26 nm, respectively. The plasma clearance rate of the nanoparticles was measured based on the content of SN38 (10 mg/kg).
In addition, the plasma clearance rates of small molecule ICG, ICG/PTX solutions, and ICG/SN38 nanoparticles were compared.

The test system of series [3] is BCap37 cells. Briefly: MTT cytotoxicity test with and without irradiation. The class given is cell-based, human. The procedure: FIG. 9 is a graph showing a cytotoxicity test of ICG and the complex formulation thereof on BCap37 cells. (I1S2 is a nanoparticle formed by ICG and SN38 with a molar ratio of 1:2; and I1P1 is an aqueous solution drug of the complex formed by ICG and Paclitaxel with a molar ratio of 1:1. The drugs were applied for 24 hours and then washed off, followed by incubation for 24 hours after irradiation and non-irradiation treatment, respectively.)
200 μL of cell suspension at the density of 4000 cells/well was uniformly added to a 96-well plate. After 24 hours of incubation, ICG, ICG/SN38 (I1S2) nanoparticles, ICG/PTX (I1P1) complex solution and ICG/CCM (I1C2) complex solution were added at different concentration points. Two identical plates were incubated in dark for 3 hours, and then culture medium was removed and washed three times with PBS, followed by addition of fresh medium. The irradiation group was further dark-incubated after 30 minutes of irradiation under a fluorescent lamp, and the other cell culture plate was dark-incubated all long as a light-proof control group. After 48 hours of incubation, culture plates were centrifuged at 900 rpm, and culture medium was carefully removed. The plates were added the medium containing 0.75 mg/mL MIT dark-incubated for 3 hours, centrifuged at 3500 rpm. After carefully removing the culture solution, the plates were added 100 μL of DMSO to each well, and shaked for 5 minutes to completely dissolve the purple solids. The absorbance (OD) value was recorded on a microplate reader. The test of each drug concentration point was repeated 3 times.
For orientation: Formazan colour is commonly taken as a measure of viable cells.

The subject of series [4] is BCap37 cells. Briefly: photothermal therapy effect at the cellular level. The format is cell-based, human. Conditions: 3 h incubation, 808 nm laser 5 min, 1 W/cm^2. The procedure:
The endocytosis experiment was carried out with the indocyanine green complex formulations prepared in embodiments 1 and 2 of the present invention, and the free ICG was used as a control. The procedures were as follows:
The experiment was divided into ICG/SN38 group, ICG/PTX group and ICG group. The BCap37 cells on the stage of logarithmic phase were evenly seeded in a 12-well plate at 1×10^5 cells/well. After 24 hours of incubation, the incubation medium was discarded, and the above formulations in 1 mL culture medium were added to the plate, respectively. After 3 hours of incubation, the incubation medium was discarded, and 1 mL of PBS was added. The three wells incubated with different formulations were then irradiated with 808 nm laser for 5 min (1 W/cm^2), and were photographed in real time by an infrared thermal camera, and the graphs of the temperature changes of each group were recorded.

The subject of a further series is cells. The series can be described thus: cellular uptake by laser confocal microscopy. The format is cell-based. The note with it: 2 hours after drug applied. How it is done:
In order to judge the rate of cellular uptake of drug from the nano formulation, as well as the therapeutic effect of the drug, the laser confocal microscopy microscope was used to observe the distribution of the drug in the cells 2 hours after drug applied. […] Therefore, the largest amount of ICG could enter into the cell to exert best therapeutic effect in the nano drug-loading system.

Series [5] has as its system BCap37 human breast cancer cell line tumor. Briefly: tumor inhibition experiment in tumor-bearing nude mice, with and without irradiation. The class given is in vivo. How it is done: After the tumor size was grown to about 100 mm^3 (9 days after inoculation), the tumor-bearing nude mice were randomly divided into 7 groups, 5 in each group. One group was injected with PBS as blank control, and the other six administration groups were categorized as the ICG small molecule group without irradiation, ICG small molecule group plus irradiation, ICG/SN38 nanoparticle group, ICG/SN38 nanoparticle group plus irradiation, ICG/PTX aqueous solution group, and ICG/PTX aqueous solution group plus irradiation, respectively. The mice were injected via the tail vein at a dose of calculated ICG concentration at 10 mg/kg, and were administered once every other day for 2 times. The tumor size was recorded until the end of the experiment. The therapeutic effect was evaluated by comparing the treatment group with the control group. The tumor inhibition rate (IR) was calculated by the following formula: IR=100%×(mean tumor weight of the control group−mean tumor weight of the experimental group)/mean tumor weight of the control group.
FIG. 15 was the results of tumor inhibition after irradiation treatment. The ICG group was administered twice, and the ICG/SN38 nanoparticle group was administered once. Irradiation was carried out 4 hours after administration (808 nm laser, intensity 1 W/cm^2, irradiation for 2 minutes). […]

Turning to `CC1(C)C(/C=C/C=C/C=C/C=C2\N(CCCCS(=O)(=O)[O-])c3ccc4ccccc4c3C2(C)C)=[N+](CCCCS(=O)(=O)[O-])c2ccc3ccccc3c21.[Na+]` [ICG, indocyanine green], the “in vivo distribution by fluorescence” value in series [1] is “the majority of ICG from the small molecule ICG group were cleared by the body”. Further, the ICG in plasma entry in series [2] (after 1 hour) is given as “nearly not detectable”. In addition, the plasma clearance result in series [2] (mice, FIG. 11) is listed as “extremely fast”. The compound also yielded a concentration at 3 min in series [2] (mouse, plasma, other: injection (site not specified), three minutes after injecting) of less than 1000 ng/mL. The half-maximal inhibitory concentration (IC50) (usually the concentration needed to halve the response being measured) in the series with BCap37 cells [3] (Homo sapiens, Bcap37, light or radiation study, with light irradiation) was roughly 13.5 µM. Also, the cell death result with BCap37 cells [3] (ICG 20 μM, after irradiation) is “death of all the cells”. Also, in the series on BCap37 cells [3] (in the absence of light), the “toxicity to the cells” value is reported as “not toxic”. The cell temperature change entry with BCap37 cells [4] is listed as “no significant temperature changes”. The “cellular uptake / intracellular distribution” value in the series on cells is listed as “difficult to enter the cell”. Further, the anti-tumor effect result is “residual tumors were still present and recurred rapidly after the end of treatment” in series [5] (irradiation 4 hours after administration, 808 nm, 1 W/cm^2, 2 minutes); “no anti-tumor effect at all” in series [5] (non-irradiation, ICG 10 mg/kg tail vein, every other day for 2 times).
